Assay results taken from patent publication US4469706A, “Selective beta-2 adrenergic antagonists for the treatment of glaucoma” (priority 1982, dated 1984).
Structures can show the parent of a compound that is named as a salt. Where two headings read alike, the source gives them in different places.

Experiments:
[1] = target: T1, rabbit ciliary process adenylate cyclase (Oryctolagus cuniculus, UniProt G1TAV7); test: Rabbit ciliary process beta-adrenergic sensitive adenylate cyclase activity; assay type: biochemical; conditions: for Ki: antagonists, inhibition of isoproterenol-stimulated activity, Table I, read-out: Adenylate Cyclase Ki, Ciliary Process Rabbit (B)
T1 construct: After isolation of the ciliary process, adenylate cyclase activity was measured; from tissue; host or cells: rabbit ciliary process
T1 sequence (G1TAV7 1-437): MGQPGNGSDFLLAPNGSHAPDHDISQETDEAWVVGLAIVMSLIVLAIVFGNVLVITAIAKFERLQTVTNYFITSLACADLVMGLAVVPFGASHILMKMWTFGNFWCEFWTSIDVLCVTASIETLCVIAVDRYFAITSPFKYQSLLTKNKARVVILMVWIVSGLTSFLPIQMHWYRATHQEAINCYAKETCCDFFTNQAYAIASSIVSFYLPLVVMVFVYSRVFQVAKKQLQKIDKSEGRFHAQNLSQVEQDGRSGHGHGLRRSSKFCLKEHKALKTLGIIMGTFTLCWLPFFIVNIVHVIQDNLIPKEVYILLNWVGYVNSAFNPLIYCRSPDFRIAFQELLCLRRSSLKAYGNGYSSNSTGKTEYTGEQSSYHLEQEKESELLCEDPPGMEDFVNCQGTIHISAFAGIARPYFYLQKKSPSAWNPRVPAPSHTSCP

[2] = target: T2, beta-adrenergic sensitive adenylate cyclase present in mammalian choroid plexus (Felis catus, UniProt Q9TST5); test: Choroid plexus adenylate cyclase activity; assay type: biochemical
T2 construct: are prepared from the various tissues to be studied (e.g., ciliary process, choroid plexus, heart or lung); from tissue; host or cells: choroid plexus (homogenate or washed particulate)
T2 sequence (Q9TST5 whole entry): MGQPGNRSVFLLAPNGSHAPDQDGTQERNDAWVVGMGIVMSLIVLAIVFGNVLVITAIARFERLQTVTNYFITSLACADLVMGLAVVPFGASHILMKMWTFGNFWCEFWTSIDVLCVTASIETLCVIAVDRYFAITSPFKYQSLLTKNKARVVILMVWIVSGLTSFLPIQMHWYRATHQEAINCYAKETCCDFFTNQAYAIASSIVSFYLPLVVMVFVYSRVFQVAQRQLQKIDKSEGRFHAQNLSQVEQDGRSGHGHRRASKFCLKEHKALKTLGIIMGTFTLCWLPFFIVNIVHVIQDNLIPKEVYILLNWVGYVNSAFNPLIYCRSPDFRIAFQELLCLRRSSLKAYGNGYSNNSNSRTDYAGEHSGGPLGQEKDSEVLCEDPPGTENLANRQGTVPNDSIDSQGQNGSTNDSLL

heart adenylate cyclase [3] = test: Heart adenylate cyclase activation and inhibition; assay type: biochemical, mammalian; conditions: antagonists; Table I; ** data from the present inventor, method (a); read-out: Adenylate Cyclase Ki, Heart (G)
[4] = system: rabbit ciliary process adenylate cyclase; test: Rabbit ciliary process beta-adrenergic sensitive adenylate cyclase activity; assay type: biochemical; conditions: Table I columns B (rabbit ciliary process) and G
[5] = target: beta1 -adrenergic receptor present in mammalian heart; conditions: Table I; Minneman et al; read-out: Kd for IHYP Binding, Heart (E); cited from earlier work
heart adenylate cyclase [6] = target: T3, heart adenylate cyclase (Rattus norvegicus, UniProt P18090); conditions: agonists; Table I; Minneman et al; NE = no effect as agonist; cited from earlier work
T3 construct: are prepared from the various tissues to be studied (e.g., ciliary process, choroid plexus, heart or lung); from tissue; host or cells: heart (homogenate or washed particulate)
T3 sequence (P18090 whole entry): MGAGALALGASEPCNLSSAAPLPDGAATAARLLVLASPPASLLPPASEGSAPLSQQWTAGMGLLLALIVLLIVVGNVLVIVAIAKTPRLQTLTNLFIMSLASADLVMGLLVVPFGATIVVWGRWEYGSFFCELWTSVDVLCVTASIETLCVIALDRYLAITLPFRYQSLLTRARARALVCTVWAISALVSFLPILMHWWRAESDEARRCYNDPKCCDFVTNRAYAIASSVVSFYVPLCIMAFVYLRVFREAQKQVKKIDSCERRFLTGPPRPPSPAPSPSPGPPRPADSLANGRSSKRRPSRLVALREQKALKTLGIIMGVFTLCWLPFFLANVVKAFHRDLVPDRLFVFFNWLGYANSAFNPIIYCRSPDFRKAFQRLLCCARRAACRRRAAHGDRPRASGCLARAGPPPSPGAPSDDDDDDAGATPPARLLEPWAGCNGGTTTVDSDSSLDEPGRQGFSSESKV

[7] = target: T4, human ciliary process beta-adrenergic receptors (Homo sapiens, UniProt P07550); test: biochemical
T4 construct: ciliary process from human donor eyes was assayed biochemically; from tissue; host or cells: ciliary process from human donor eyes
T4 sequence (P07550 whole entry): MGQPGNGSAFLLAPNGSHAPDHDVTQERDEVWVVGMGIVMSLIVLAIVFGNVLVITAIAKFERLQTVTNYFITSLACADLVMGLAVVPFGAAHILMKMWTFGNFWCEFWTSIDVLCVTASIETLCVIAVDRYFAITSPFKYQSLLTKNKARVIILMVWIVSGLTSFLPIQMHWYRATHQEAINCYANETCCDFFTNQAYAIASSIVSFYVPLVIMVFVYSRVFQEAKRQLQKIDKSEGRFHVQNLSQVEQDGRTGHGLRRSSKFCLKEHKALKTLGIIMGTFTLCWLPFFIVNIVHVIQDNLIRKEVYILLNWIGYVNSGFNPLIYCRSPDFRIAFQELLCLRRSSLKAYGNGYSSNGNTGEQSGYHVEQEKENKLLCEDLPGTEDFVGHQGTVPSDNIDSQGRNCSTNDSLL

[8] = system: intraocular pressure in rabbit eyes
[9] = system: cardioacceleratory effect of isoproterenol; conditions: subcutaneous antagonist 30 minutes before 3 micrograms/kg subcutaneous isoproterenol; rabbits
[10] = system: intraocular pressure above normal; test: Alpha chymotrypsin-induced glaucoma in rabbits; assay type: in vivo, rabbit; conditions: compared with timolol
Text: This effect is also observed under conditions of elevated pressure.

[11] = system: ciliary body adenylate cyclase; test: Ciliary body adenylate cyclase stimulation; assay type: biochemical
Text: (§1) The discovery that the ciliary process of the mammalian eye contains β2 -adrenergic receptors is based on the technique of measuring adenylate cyclase, an enzyme which synthesizes cyclic AMP from ATP. It has been established that receptor binding of beta adrenergic agonists is associated with a concomitant activation of adenylate cyclase. (Robison, G. A., et al, Cyclic AMP, Academic Press, New York, 1971, and Wolfe, B. B., et al, Annual Reviews of Pharmacology and Toxicology, 17:575-604 (1977)). […] Beta adrenergic sensitive adenylate cyclase activity was thus identified and characterized in the ocular tissues of several mammalian species such as rabbits, cats, dogs, monkeys and humans. After isolation of the ciliary process, adenylate cyclase activity was measured, and its activation by agonists or inhibition by antagonists was measured. […].
(§2) For ciliary body, maximal stimulation was 15% of the stimulation seen in the ciliary process, and for iris, maximal stimulation was 22% for that seen in the ciliary process. […];

iris adenylate cyclase = test: Iris adenylate cyclase stimulation; assay type: biochemical
Text: as §1, §2

[12] = antagonists, Table I, read-out: Adenylate Cyclase Ki, Choroid Plexus (C)
[13] = 0.5% topical to ipsilateral eye
[14] = 0.5% topical, two 50 microliter doses, 2 and 3 hours after application

SMILES: CC(C)NCC(O)COc1ccc(CC(N)=O)cc1 (stereo not drawn) [Atenolol, atenolol]
- Ki [1]: 21000 nM
- Ki [2, 12]: 5800 nM
- Ki (heart adenylate cyclase [3]): 2700 nM

SMILES: COc1ccc(OC)c(C(O)C(C)NC(C)(C)C)c1 (stereo not drawn) [Butoxamine]
- Ki [1]: 1530 nM
- β2/β1 potency ratio (Ki heart/Ki ciliary process) [4]: 9.8
- Ki [2, 12]: 1500 nM
- Ki (heart adenylate cyclase [3]): 15000 nM
- Kd [5]: 7030 nM

SMILES: CNC[C@H](O)c1ccc(O)c(O)c1 [Epinephrine]
- EC50 [1]: 2400 nM
- EC50 [2]: 1550 nM
- Adenylate Cyclase Ka, Heart (G) (heart adenylate cyclase [6]): 1.5 µM

SMILES: Cc1ccc(C(O)C(C)NC(C)C)cc1 (stereo not drawn) [H35/25, 1(4'-methylphenyl)-2-isopropyl amino propanol]
- Ki ([7]; antagonists, inhibition of isoproterenol-stimulated activity, Table I column A, read-out: Adenylate Cyclase Ki, Ciliary Process Human (A)): 740 nM
- beta2/beta1 Potency Ratio ([7]; human ciliary process, Table 3): 8.8
- Ki ([7]; human ciliary process, Table 3, read-out: Ki for Isoproterenol-Stimulated Adenylate Cyclase): 740 nM
- Ki ([7]; inhibition of isoproterenol stimulation of human ciliary process adenylate cyclase, read-out: calculated inhibitory constant (Ki)): 740 nM
- Ki [1]: 700 nM
- Ki [2]: 140 nM

SMILES: Cc1ccc(OCC(O)C(C)NC(C)C)c2c1CCC2 (stereo not drawn) [ICI 118,551]
- Ki [1]: 3 nM
- Ki (heart adenylate cyclase [3]): 1760 nM
- Ocular irritative effects ([8]; rabbit, in vivo): little ocular irritative effects
- Decrease in intraocular pressure compared with timolol ([8]; topical 50 μl of a 1% solution, 6 hours, N=12 double blind crossover): both a greater decrease as well as a more prolonged decrease in intraocular pressure than did timolol
- IC50 for blocking isoproterenol-induced increase in heart rate [9]: 140 micrograms/kg

SMILES: CC(C)(C)NCC(O)CON=C1c2ccccc2-c2ccccc21 (stereo not drawn) [IPS 339, (t-butyl-amino 3-ol-2-propyl) oximino-9 fluorene, hydrochloride]
- Ki [2]: 1.9 nM
- Ki (heart adenylate cyclase [3]): 1120 nM
- Intraocular pressure above normal [10]: decreased significantly
- Change of IOP in the contralateral eye [8, 13]: significant decrease in IOP in the contralateral eye
- Magnitude of contralateral IOP effect compared with timolol [8, 13]: somewhat less for IPS 339 than for timolol
- Change of IOP in ipsilateral eyes compared to predrug readings [8, 14]: significant decrease in IOP in ipsilateral eyes
- Extent of IOP decrease compared with timolol ([8]; 0.5% topical, at 3 hours): significantly more than that caused by timolol
- Pupillary diameter and overt ocular toxicity ([8]; rabbit, in vivo): no significant changes in pupillary diameter nor overt ocular toxicity
- Kd [5]: 10 nM

SMILES: CC(C)NCC(O)c1ccc(O)c(O)c1 (stereo not drawn) [Isoproterenol]
- EC50 [2]: 140 nM
- Maximal stimulation, of the stimulation seen in the ciliary process [11]: 15%
- Maximal stimulation, of that seen in the ciliary process (iris adenylate cyclase): 22%

SMILES: NC[C@H](O)c1ccc(O)c(O)c1 [Norepinephrine]
- EC50 [1]: 29000 nM
- EC50 ([2]; agonists, Table I, read-out: Adenylate Cyclase Ka, Choroid Plexus (C)): 25000 nM
- Kd [5]: 820 nM

SMILES: CC(=O)Nc1ccc(OCC(O)CNC(C)C)cc1 (stereo not drawn) [Practolol, practolol]
- Ki [1]: 39000 nM
- Ki [2, 12]: 8900 nM
- Ki (heart adenylate cyclase [3]): 5500 nM
- Kd [5]: 1100 nM

SMILES: CC(C)(C)NC[C@H](O)COc1nsnc1N1CCOCC1 [Timolol, timolol]
- Ki [1]: 6.4 nM
- Ki (heart adenylate cyclase [3]): 20 nM
- Change of IOP in the contralateral eye [8, 13]: significant decrease in IOP in the contralateral eye
- Change of IOP in ipsilateral eyes compared to predrug readings [8, 14]: significant decrease in IOP in ipsilateral eyes
- Change of IOP in ipsilateral eyes compared to predrug readings ([8]; 0.5% topical, 1 hour after application): also caused a significant decrease at 1 hour
- Pupillary diameter and overt ocular toxicity ([8]; rabbit, in vivo): no significant changes in pupillary diameter nor overt ocular toxicity
- IC50 for blocking isoproterenol-induced increase in heart rate [9]: 2.2 micrograms/kg
